Measured values taken from ChEMBL document CHEMBL1129869, “SPORANDOL: A NOVEL ANTIPARASITIC BINAPHTHALENE FROM CHRYSOSPORIUM MERIDARIUM” (Bioorg Med Chem Lett, 1997).
The source made the active and inactive calls. The calls are words filed in the database; no cut-off is given here.

How the values were obtained:
[1] = tested on: Dipetalogaster maximus; assay: Antiparasitic activity against ecto parasite Dipetalogaster maximus in mouse at a dose of 190 mg/kg; Active; assay type: functional, organism-based; parameters: dose 190 mg/kg
[2] = tested on: Fasciola hepatica; assay: Antiparasitic activity against endo parasite Fasciola hepatica in mouse at a dose of 190 mg/kg; Active; assay type: functional, organism-based; parameters: dose 190 mg/kg

COc1cc2cc(C)c(C(C)=O)c(O)c2c(O)c1-c1c(OC)cc2cc(C)c(C(C)=O)c(O)c2c1O
Activity [1]: Active
Activity [2]: Active
